Assay results: patent US8278311B2, “Substituted pyrimidine derivatives” (Abbott Laboratories, priority 2008, dated 2012)
Read-outs that look alike come from different tables or passages of the source.

Legend:
[1] = molecular target: T1, histamine H4 receptor (Homo sapiens, UniProt Q9H3N8); experiment: 3H-histamine competition binding assay
T1 construct: expressed in transfected cells
Experimental: The potency of compounds of the invention in displacing ^3H-histamine in competition binding assays is assessed by methods described in Esbenshade, et al., Biochemical Pharmacology (2004), vol. 68, pp. 933-945. In this assay, membranes were prepared from HEK-293 cells transiently transfected with the pClNeo expression vector harboring the histamine H4 receptor by homogenization of the cells on ice in TE buffer (50 mM Tris-HCl buffer, pH 7.4, containing 5 mM EDTA), 1 mM benzamidine, 2 μg/mL aprotinin, 1 μg/mL leupeptin, and 1 μg/mL pepstatin. The homogenate was centrifuged at 40,000 g for 20 minutes at 4° C. This step was repeated, and the resulting pellet was resuspended in TE buffer. Aliquots were frozen at −70° C. until needed. On the day of assay, membranes were thawed and diluted with TE buffer. Competition radioligand binding assays were performed with increasing concentrations of test compound in the presence of [^3H]-histamine incubated at 25° C. for 1 hour in a total volume of 0.5 mL of 50 mM Tris, 5 mM EDTA, pH 7.4. All binding reactions were terminated by filtration under vacuum onto polyethylenimine (0.3%) presoaked Unifilters (PerkinElmer Life Sciences) or Whatman GF/B filters (Whatman, Clifton, N.J.) followed by three brief washes with 4 mL of ice-cold TE buffer. Bound radiolabel was determined by liquid scintillation counting. For all of the radioligand competition binding assays, IC50 values and Hill slopes were determined by Hill transformation of the data and Ki values were determined by the Cheng-Prusoff equation. The following table of representative histamine H4 receptor ligands is provided, along with potency values: […]

[2] = molecular target: T1, histamine H4 receptor; experiment: in vitro assay of histamine H4 activity using FLIPR-Ca+2 flux; assay type: cell-based; conditions: HEK-293 cells stably expressing histamine H4 receptor and Gαqi5, Fluo-4; Kb for antagonists and inverse agonists, EC50 for partial agonists
Excerpt: There are many methods available to show the effectiveness of compounds as histamine H4 receptor ligands. Histamine H4 receptors from mammalian species have been cloned. Methods to clone, express, and assess the potency and functional activity of such cloned genes are well known to those skilled in the art of molecular biology. Examples of methods of cloning and expressing histamine H4 receptors, and of assessing the potency and functional activity are described in Nguyen, et al. Molecular Pharmacology (2001) vol. 59 pp. 427-433; Zhu, et al. Molecular Pharmacology (2001) vol. 59 pp. 434-441; Coge, et al., Biochemical and Biophysical Research Communications (2001) vol. 284, pp. 301-309; Liu, et al. Molecular Pharmacology (2001) vol. 59 pp. 420-426; Liu, et al. Journal of Pharmacology and Experimental Therapeutics (2001) v. 299, pp. 121-130; and Thurmond, et al. Journal of Pharmacology and Experimental Therapeutics (2004) v. 309, pp. 404-413. In the present case, to determine the potency and effectiveness of representative compounds of this invention as histamine-H4 receptor ligands (H4 receptor ligands), the following tests were conducted according to previously described methods (see Esbenshade, et al., Biochemical Pharmacology (2004), vol. 68, pp. 933-945, and in Krueger, et al., Journal of Pharmacology and Experimental Therapeutics (2005) v. 314, pp. 271-281): histamine H4 receptors were cloned and stably expressed in HEK-293 (human embryonic kidney) cells coexpressing a Gαqi5. Before testing, cells are loaded with a Ca+^2 sensitive fluorescent dye, in this case Fluo-4 (Invitrogen, Carlsbad, Calif.). In the case of partial agonist or agonist ligands, addition of compound to the cells leads to the increase in intracellular Ca^+2 which is detected by FLIPR (Fluorescence Imaging Plate Reader; Molecular Devices, Sunnyvale, Calif.) technology. In a similar manner, compounds that are antagonists or inverse agonists, block the increase in fluorescence induced by the full histamine H4 agonist histamine, and partial agonists reduce the amount of fluorescence induced by the full histamine H4 agonist histamine. The fluorescence intensities measured before addition of the test compound are subtracted from the fluorescence intensities at later time points. Peak response values determined at each concentration of ligand are expressed as a percentage of the response obtained with the full agonist histamine. Concentration versus response data are analyzed to obtain compound potency as Kb values for antagonists and inverse agonists and as EC50 values for partial agonists.

[3] = membranes of HEK-293 cells transiently transfected with histamine H4 receptor, [3H]-histamine, 25° C., 1 hour, read-out: Binding assay Potency (Ki)

T1 sequence (Q9H3N8 whole entry, species assumed): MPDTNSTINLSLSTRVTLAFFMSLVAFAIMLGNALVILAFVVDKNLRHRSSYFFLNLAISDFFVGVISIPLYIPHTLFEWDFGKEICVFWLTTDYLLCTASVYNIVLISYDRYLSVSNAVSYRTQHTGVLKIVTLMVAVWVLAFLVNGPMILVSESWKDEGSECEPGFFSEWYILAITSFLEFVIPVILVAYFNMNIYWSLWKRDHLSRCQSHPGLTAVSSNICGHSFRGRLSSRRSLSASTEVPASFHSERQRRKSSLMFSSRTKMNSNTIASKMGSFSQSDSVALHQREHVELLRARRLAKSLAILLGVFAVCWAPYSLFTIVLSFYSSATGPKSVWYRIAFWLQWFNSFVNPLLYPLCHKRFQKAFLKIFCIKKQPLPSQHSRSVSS

Structure (SMILES)	Ki [1, 3]	Potency [2]	Ki [1]
CN[C@@H]1CCN(c2nc(N)nc3c2CC[C@@H]2CCCC[C@@H]32)C1 (mixture of isomers) [Example 16, trans-4-[(3R)-3-(methylamino)pyrrolidin-1-yl]-5,6,6a,7,8,9,10,10a-octahydrobenzo[h]quinazolin-2-amine]	2.6 nM	1.4 nM	
Nc1nc2c(c(N3CC[C@@H](N)C3)n1)CC[C@@H]1CCCC[C@@H]21 (mixture of isomers) [Example 17, trans-4-[(3R)-3-aminopyrrolidin-1-yl]-5,6,6a,7,8,9,10,10a-octahydrobenzo[h]quinazolin-2-amine]		1.2 nM	
CN[C@@H]1CCN(c2nc(N)nc3c2CC[C@@H]2CCCC[C@H]32)C1 (mixture of isomers) [Example 19, cis-4-[(3R)-3-(methylamino)pyrrolidin-1-yl]-5,6,6a,7,8,9,10,10a-octahydrobenzo[h]quinazolin-2-amine]		1.6 nM	
Nc1nc2c(c(N3CC[C@@H](N)C3)n1)CC[C@@H]1CCCC[C@H]21 (mixture of isomers) [Example 20, cis-4-[(3R)-3-aminopyrrolidin-1-yl]-5,6,6a,7,8,9,10,10a-octahydrobenzo[h]quinazolin-2-amine]		1.4 nM	
Nc1nc2c(c(N3CCNCC3)n1)CC[C@@H]1CCCC[C@@H]21 (relative stereo) [Example 12, trans-4-piperazin-1-yl-5,6,6a,7,8,9,10,10a-octahydrobenzo[h]quinazolin-2-amine]	2 nM	6.9 nM	
Nc1nc2c(c(N3CCNCC3)n1)CC[C@@H]1CCCC[C@H]21 (relative stereo) [Example 13, cis-4-piperazin-1-yl-5,6,6a,7,8,9,10,10a-octahydrobenzo[h]quinazolin-2-amine]	1.8 nM	3.3 nM	
CNC1CN(c2nc(N)nc3c2CC[C@@H]2CCCC[C@@H]32)C1.O=C(O)C(F)(F)F.O=C(O)C(F)(F)F (relative stereo) [Example 14, trans-4-[3-(methylamino)azetidin-1-yl]-5,6,6a,7,8,9,10,10a-octahydrobenzo[h]quinazolin-2-amine bis(trifluoroacetate)]	0.9 nM	1.5 nM	
CCNC1CN(c2nc(N)nc3c2CC[C@@H]2CCCC[C@@H]32)C1.O=C(O)C(F)(F)F.O=C(O)C(F)(F)F (relative stereo) [Example 15, trans-4-[3-(ethylamino)azetidin-1-yl]-5,6,6a,7,8,9,10,10a-octahydrobenzo[h]quinazolin-2-amine bis(trifluoroacetate)]	1 nM	3.2 nM	
Nc1nc2c(c(N3C[C@H]4CCCN[C@H]4C3)n1)CC[C@@H]1CCCC[C@H]21 (relative stereo) [Example 21, cis-4-[cis-octahydro-6H-pyrrolo[3,4-b]pyridin-6-yl]-5,6,6a,7,8,9,10,10a-octahydrobenzo[h]quinazolin-2-amine]		8.3 nM	
CNC1CN(c2nc(N)nc3c2CC[C@@H]2CCCC[C@H]32)C1 (relative stereo) [Example 22, cis-4-[3-(methylamino)azetidin-1-yl]-5,6,6a,7,8,9,10,10a-octahydrobenzo[h]quinazolin-2-amine]		3.0 nM	
CCNC1CN(c2nc(N)nc3c2CC[C@@H]2CCCC[C@H]32)C1 (relative stereo) [Example 23, cis-4-[3-(ethylamino)azetidin-1-yl]-5,6,6a,7,8,9,10,10a-octahydrobenzo[h]quinazolin-2-amine]		3.0 nM	
Nc1nc2c(c(N3C[C@H]4CCCN[C@H]4C3)n1)CCCC1C3C=CC(CC3)C21 (relative stereo) [Example 24, 4-cis-octahydro-6H-pyrrolo[3,4-b]pyridin-6-yl-6,7,7a,8,11,11a-hexahydro-5H-8,11-ethanobenzo[6,7]cyclohepta[1,2-d]pyrimidin-2-amine]		91.2 nM	
Nc1nc2c(c(N3C[C@H]4CCCN[C@H]4C3)n1)CCCC1C3CCC(CC3)C21 (relative stereo) [Example 27, 4-cis-octahydro-6H-pyrrolo[3,4-b]pyridin-6-yl-6,7,7a,8,9,10,11,11a-octahydro-5H-8,11-ethanobenzo[6,7]cyclohepta[1,2-d]pyrimidin-2-amine]		89.1 nM	
CN[C@@H]1CCN(c2nc(N)nc3c2CCC2=C3C3CCCCC3O2)C1 (stereo partly drawn) [Example 2, 4-[(3R)-3-(methylamino)pyrrolidin-1-yl]-5,6,7a,8,9,10,11,11a-octahydro[1]benzofuro[2,3-h]quinazolin-2-amine]	3.3 nM	5.9 nM	
CN1CCCN(c2nc(N)nc3c2CCC2=C3C3CCCCC3O2)CC1 (stereo not shown) [Example 5, 4-(4-methyl-1,4-diazepan-1-yl)-5,6,7a,8,9,10,11,11a-octahydro[1]benzofuro[2,3-h]quinazolin-2-amine]		16 nM	
CN1CCN(c2nc(N)nc3c2CCC2=C3C3CCCCC3O2)CC1 (stereo not shown) [Example 6, 4-(4-methylpiperazin-1-yl)-5,6,7a,8,9,10,11,11a-octahydro[1]benzofuro[2,3-h]quinazolin-2-amine]		25 nM	
Nc1nc(N2CC[C@@H](N)C2)c2ccc3c(c2n1)C1CCCCC1O3 (stereo partly drawn) [Example 7, 4-[(3R)-3-aminopyrrolidin-1-yl]-7a,8,9,10,11,11a-hexahydro[1]benzofuro[2,3-h]quinazolin-2-amine]	12.6 nM	4.1 nM	
Nc1nc(N2C[C@H]3CNC[C@H]32)c2ccc3c(c2n1)C1CCCCC1O3 (stereo partly drawn) [Example 8, 4-[(1R,5S)-3,6-diazabicyclo[3.2.0]hept-6-yl]-7a,8,9,10,11,11a-hexahydro[1]benzofuro[2,3-h]quinazolin-2-amine]		61.7 nM	
Nc1nc2c(c(N3CCCNCC3)n1)CCC1=C2C2CCCCC2O1 (stereo not shown) [Example 9, 4-(1,4-diazepan-1-yl)-5,6,7a8,9,10,11,11a-octahydro[1]benzofuro[2,3-h]quinazolin-2-amine]		16 nM	
CC(C)N1CCCN(c2nc(N)nc3c2CCC2=C3C3CCCCC3O2)CC1 (stereo not shown) [Example 10, 4-(4-isopropyl-1,4-diazepan-1-yl)-5,6,7a,8,9,10,11,11a-octahydro[1]benzofuro[2,3-h]quinazolin-2-amine]		1260 nM	
Nc1nc2c(c(N3CCCN(C4CCC4)CC3)n1)CCC1=C2C2CCCCC2O1 (stereo not shown) [Example 11, 4-(4-cyclobutyl-1,4-diazepan-1-yl)-5,6,7a,8,9,10,11,11a-octahydro[1]benzofuro[2,3-h]quinazolin-2-amine]		2000 nM	
Nc1nc2c(c(N3CC4CCCNC4C3)n1)CCC1CCCCC21 (stereo not drawn) [Example 18, trans-4-[cis-octahydro-6H-pyrrolo[3,4-b]pyridin-6-yl]-5,6,6a7,8,9,10,10a-octahydrobenzo[h]quinazolin-2-amine]		4.9 nM	2.6 nM
Nc1nc2c(c(N3CCNCC3)n1)CCCC1C3C=CC(CC3)C21 (stereo not shown) [Example 26, 4-piperazin-1-yl-6,7,7a,8,11,11a-hexahydro-5H-8,11-ethanobenzo[6,7]cyclohepta[1,2-d]pyrimidin-2-amine]		60.3 nM	
